Patent US20160296646A1, “ALKYLPHOSPHOCHOLINE ANALOGS FOR MULTIPLE MYELOMA IMAGING AND THERAPY” (Wisconsin Alumni Research Foundation, priority 2015, published 2016)

Columns and labels:
[1] = test system: CD14+ monocyte/macrophage cells from normal human blood; assay: Uptake in CD14+ monocyte/macrophage cells among normal PBMCs; format: cell-based
Method: (§1) Uptake of CLR1501 and 1502 was assessed using peripheral blood mononuclear cells (PBMCs) isolated from normal human blood.

[2] = test system: RPM18226 multiple myeloma cell line; assay: Uptake of fluorescent analogs in RPM18226 cells (optical imaging); format: cell-based; details: fluorescence imaging
Text: (§2) FIG. 4 includes optical images showing uptake of CLR1501 in three different multiple myeloma cell lines (top row, MM.1S; middle row, MM.1R; bottom row, RPM18226). […] 20× magnification.
(§3) FIG. 6 includes optical images showing uptake of CLR1502 in three different multiple myeloma cell lines (top row, MM1S; middle row, MM.1R; bottom row, RPM18226). […] 20× magnification.

[3] = test system: CD138-/CD14- cells (other mononuclear cells); assay: Uptake in CD138-/CD14- cells isolated from patient bone marrow aspirate; format: cell-based, human
Text: (§4) Bone marrow aspirate samples were taken from fifteen different patients diagnosed with multiple myeloma.
(§5) Uptake of both CLR1501 and CLR1502 was quantified by measuring fluorescence intensity for CD138^+ multiple myeloma tumor cells, CD14^+ monocyte/macrophage cells, and CD138^−/CD14^− cells isolated from bone marrow aspitrates from multiple myeloma patients.

[4] = test system: CD138+ multiple myeloma tumor cells; assay: Uptake in CD138+ tumor cells isolated from patient bone marrow aspirate; format: cell-based, human
Text: as §4, §5

[5] = test system: U266 multiple myeloma cell line; assay: Uptake of fluorescent analogs in U266 cells (optical imaging); format: cell-based; details: fluorescence imaging
Text: (§6) FIG. 5 includes optical images showing uptake of CLR1501 in two additional multiple myeloma cell lines (top row, U266; bottom row, H929). […] 20× magnification.
(§7) FIG. 7 includes optical images showing uptake of CLR1502 in two additional multiple myeloma cell lines (top row, U266; bottom row, H929). […] 20× magnification.

[6] = test system: peripheral blood mononuclear cells (PBMCs) isolated from normal human blood; assay: Uptake in normal peripheral blood mononuclear cells; format: cell-based; details: compared to MM1.S cells
Method: FIG. 8 includes optical images showing uptake of CLR1502 in cells co-incubated with Hoechst 33452 (blue nuclear) stain. […] 20× magnification.
as §1

[7] = test system: NCIH929 multiple myeloma cell line; assay: Uptake of fluorescent analogs in NCIH929 cells (optical imaging); format: cell-based; details: fluorescence imaging
Text: as §6, §7

[8] = test system: MM.1S multiple myeloma cell line; assay: Uptake of fluorescent analogs in MM.1S cells (optical imaging); format: cell-based; details: for uptake: MM.1S cells, fluorescence imaging
Text: as §2, §3

[9] = test system: CD14+ monocyte/macrophage cells; assay: Uptake in CD14+ monocyte/macrophage cells isolated from patient bone marrow aspirate; format: cell-based, human
Text: as §4, §5

[10] = test system: MM.1R multiple myeloma cell line; assay: Uptake of fluorescent analogs in MM.1R cells (optical imaging); format: cell-based; details: fluorescence imaging
Text: as §2, §3

[11] = test system: MM.1s multiple myeloma cells; assay: Bioactivity of [131I]-CLR1404: live fraction of MM.1s cells after exposure; format: cell-based; details: 48 hour exposure, control 96%
Method: MM.1s multiple myeloma cells were exposed to two different concentrations of [^131I]-CLR1404 (0.082 μCi and 0.91 μCi) for a 48 hour period, as well as to a control containing no [^131I]-CLR1404. Bioactivity for each group was determined by determining the percentage of cells that remained alive after the exposure period (live fraction).

[12] = CD138- cells from the same patient samples (except CD14+ cells)
[13] = CD138+ cells from bone marrow aspirates of fifteen multiple myeloma patients
[14] = CD14+ cells from patient bone marrow aspirates

SMILES | uptake [1] | uptake [2] | uptake [3, 12] | uptake ([3]; patient A, CD138-/CD14- cells) | uptake ([3]; patient B, CD138-/CD14- cells co-incubated with Hoechst 33452) | uptake [4, 13] | uptake ([4]; patient A, CD138+ cells) | uptake [5] | uptake [6] | uptake [7] | uptake [8] | localization of uptake within cells ([8]; MM.1S, MM.1R, RPM18226 cells co-incubated with lipid raft stain) | uptake [9, 14] | uptake ([9]; patient A, CD14+ cells) | uptake [10] | live fraction ([11]; 0.082 μCi) [%] | live fraction ([11]; 0.91 μCi) [%] | uptake ([3]; patient D, CD138-/CD14- cells) | uptake in CD138+ tumor cells relative to CD14 monocyte/macrophage cells (fluorescence intensity) ([4]; patient G, same patient) | uptake in CD138+ tumor cells relative to CD138-/CD14- cells (fluorescence intensity) ([4]; patient G, same patient)
C[N+](C)(C)CCOP(=O)([O-])OCCCCCCCCCCCCCCCCCCc1ccc(C2=C3C=CC=[N+]3[B-](F)(F)n3cccc32)cc1 [CLR1501] | did exhibit uptake | strong uptake | very minimal to no uptake | no detectable uptake | minimal CLR1501 uptake | high uptake | taken up | high uptake | minimal to no uptake | high uptake | strong uptake | localized to the lipid rafts | did take up the analogs | taken up | strong uptake |  |  |  |  | 
C[N+](C)(C)CCOP(=O)([O-])OCCCCCCCCCCCCCCCCCCc1ccc([131I])cc1 [[^131I]-CLR1404] |  |  |  |  |  |  |  |  |  |  |  |  |  |  |  | 71 | 0 |  |  | 
CN1C(=CC=C2CCCC(C=CC3=[N+](C)c4ccccc4C3(C)C)=C2c2ccc(CCCCCCCCCCCCCCCCCCOP(=O)(O)OCC[N+](C)(C)C)cc2)C(C)(C)c2ccccc21 [CLR1502] | did exhibit uptake | high uptake | very minimal to no uptake |  |  | high uptake |  | high uptake | minimal to no uptake | high uptake | high uptake |  | did take up the analogs |  | high uptake |  |  | minimal uptake | threefold greater | about fifteen fold greater
